Columns and labels:
[1] = target: T1, recombinant human DPPIV (rhDPPIV) (Homo sapiens, UniProt P27487); assay: DPPIV enzymatic activity assay, H-Gly-Pro-pNA; format: biochemical
T1 construct: purchased R&S system (so in the source)

[2] = target: T2, recombinant human DPP9 (rhDPP9) (Homo sapiens, UniProt Q86TI2); assay: DPP9 enzymatic activity assay, 40 ng rhDPP9, HEPES buffer; format: biochemical; conditions: Table 3A
T2 construct: purchased R&S system / R&D systems (both sic) 5419-SE

DPPIV = target: T3, DPPIV (Mus musculus, UniProt P28843); assay: DPPIV enzymatic activity in mouse plasma (H-Gly-Pro-AMC); format: biochemical, C57BL/6 mouse; conditions: H-Gly-Pro-AMC substrate
T3 construct: from tissue; host or cells: C57BL/6 mouse plasma (EDTA)
T3 sequence (P28843 37-760 limits assumed): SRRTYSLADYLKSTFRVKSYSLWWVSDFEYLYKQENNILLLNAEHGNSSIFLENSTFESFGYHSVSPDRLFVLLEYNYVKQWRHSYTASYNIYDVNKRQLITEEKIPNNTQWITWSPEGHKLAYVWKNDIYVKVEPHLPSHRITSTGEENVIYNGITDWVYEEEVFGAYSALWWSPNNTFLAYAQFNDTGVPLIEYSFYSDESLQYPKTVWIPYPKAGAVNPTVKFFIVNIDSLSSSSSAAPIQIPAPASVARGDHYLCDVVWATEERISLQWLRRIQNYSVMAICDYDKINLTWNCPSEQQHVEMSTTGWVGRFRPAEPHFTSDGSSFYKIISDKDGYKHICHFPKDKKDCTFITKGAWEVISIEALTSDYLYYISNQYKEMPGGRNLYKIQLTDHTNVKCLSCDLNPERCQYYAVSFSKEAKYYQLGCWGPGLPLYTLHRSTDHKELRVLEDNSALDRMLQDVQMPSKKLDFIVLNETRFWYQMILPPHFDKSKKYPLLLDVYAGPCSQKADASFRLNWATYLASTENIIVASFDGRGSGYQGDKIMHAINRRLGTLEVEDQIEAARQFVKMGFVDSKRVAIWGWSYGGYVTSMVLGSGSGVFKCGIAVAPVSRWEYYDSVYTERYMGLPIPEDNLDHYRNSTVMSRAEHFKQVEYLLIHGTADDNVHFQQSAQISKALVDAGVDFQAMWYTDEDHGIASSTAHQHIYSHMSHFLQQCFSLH
Method: Approximately 500 μL of whole blood from one C57BL/6 mouse was harvested into BD Microtainer® tubes (K2) EDTA (#365974, Becton Dickinson and Co.) via terminal cardiac puncture. The blood sample was immediately centrifuged at approximately 9000 g at 4° C. for 5 minutes. Plasma was separated and stored at −80° C. in aliquots of 300 μL. To assay baseline DPPIV enzymatic exopeptidase activity, 5 μL of thawed, mouse plasma was diluted (1:5) in buffer (100 mM Tris-HCl, 400 mM NaCl, 50 mM salicylic acid, 1 mM EDTA, pH 7.5) and mixed with 35 μL of the same buffer before being pre-incubated with different concentrations of 10 μL of test compounds or DMSO vehicle for 15 minutes at 37° C. in 96-well black plates (Nunc, #237108). After pre-incubation, 50 μL of 200 μM dipeptide substrate H-Gly-Pro-AMC (Bachem, # L-1225) was added to the mixture. The assay was performed for 1 hour at 37° C. 7-Amino-4-Methylcoumarin (AMC) release was detected measuring fluorescence at an excitation wavelength of 360 nm and an emission wavelength of 460 nm using a Multifunction Microplate Reader (Synergy 4, Biotek). All measurements were carried out at least in duplicate.

[3] = target: T4, recombinant human FAPα (rhFAPα) (Homo sapiens, UniProt Q12884); assay: FAPα enzymatic endopeptidase (collagenase) activity assay, DQ collagen; format: biochemical; conditions: Table 2, read-out: rhFAPα (endo IC50)
T4 construct: purchased R&S system (so in the source)
T4 sequence (Q12884 1-760): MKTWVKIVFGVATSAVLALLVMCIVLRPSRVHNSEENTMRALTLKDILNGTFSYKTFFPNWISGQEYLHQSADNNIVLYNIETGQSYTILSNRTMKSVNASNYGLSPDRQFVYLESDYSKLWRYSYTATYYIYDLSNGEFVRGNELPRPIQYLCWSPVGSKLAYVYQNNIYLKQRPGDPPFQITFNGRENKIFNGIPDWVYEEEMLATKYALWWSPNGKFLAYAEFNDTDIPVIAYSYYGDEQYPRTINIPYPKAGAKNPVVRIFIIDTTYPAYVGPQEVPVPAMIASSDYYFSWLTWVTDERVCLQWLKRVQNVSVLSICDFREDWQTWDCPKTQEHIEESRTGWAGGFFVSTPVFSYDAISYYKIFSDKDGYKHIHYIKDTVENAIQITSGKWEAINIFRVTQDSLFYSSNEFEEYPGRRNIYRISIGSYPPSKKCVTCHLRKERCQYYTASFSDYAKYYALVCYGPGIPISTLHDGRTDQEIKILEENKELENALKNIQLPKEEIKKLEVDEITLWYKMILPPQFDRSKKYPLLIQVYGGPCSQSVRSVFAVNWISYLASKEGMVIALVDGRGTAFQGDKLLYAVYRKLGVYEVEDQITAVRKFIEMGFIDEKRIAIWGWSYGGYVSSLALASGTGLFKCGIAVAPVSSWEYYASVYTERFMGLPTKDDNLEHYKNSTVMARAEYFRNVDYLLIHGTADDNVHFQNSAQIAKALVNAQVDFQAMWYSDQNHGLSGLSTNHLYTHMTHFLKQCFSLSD

circulating FAPα = circulating FAPα (Mesocricetus auratus, UniProt A0ABM2XF29); assay: Ex vivo inhibition of circulating FAPα activity from hamster plasma (PRXS-AMC); format: biochemical, Golden Syrian hamster
Sequence of circulating FAPα (A0ABM2XF29 24-761 limits assumed): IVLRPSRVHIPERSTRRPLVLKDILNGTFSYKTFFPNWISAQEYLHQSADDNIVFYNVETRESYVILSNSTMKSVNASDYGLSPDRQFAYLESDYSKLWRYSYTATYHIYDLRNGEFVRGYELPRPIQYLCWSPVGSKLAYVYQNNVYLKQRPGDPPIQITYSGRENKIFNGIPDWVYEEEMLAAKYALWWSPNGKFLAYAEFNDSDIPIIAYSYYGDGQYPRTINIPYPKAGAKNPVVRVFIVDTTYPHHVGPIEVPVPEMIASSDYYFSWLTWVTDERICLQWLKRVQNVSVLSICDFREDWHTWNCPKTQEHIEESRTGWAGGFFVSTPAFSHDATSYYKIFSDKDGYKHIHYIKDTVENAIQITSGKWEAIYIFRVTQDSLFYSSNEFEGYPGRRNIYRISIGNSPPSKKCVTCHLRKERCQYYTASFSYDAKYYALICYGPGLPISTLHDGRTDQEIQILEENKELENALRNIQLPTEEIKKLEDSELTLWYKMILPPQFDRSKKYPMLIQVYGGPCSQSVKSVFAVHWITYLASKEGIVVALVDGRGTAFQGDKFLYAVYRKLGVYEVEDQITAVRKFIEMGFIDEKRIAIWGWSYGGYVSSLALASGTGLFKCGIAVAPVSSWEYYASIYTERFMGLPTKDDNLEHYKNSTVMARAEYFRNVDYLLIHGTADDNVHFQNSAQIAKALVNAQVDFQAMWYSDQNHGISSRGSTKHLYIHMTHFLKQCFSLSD
Method: Male Golden Syrian hamsters were provided by National Laboratory Animal Center (NLAC) in Taiwan. The animals were maintained in a hygienic environment under controlled temperature (20-24° C.) and humidity (50%-80%) with 12 hours light/dark cycles. Free access to standard lab diet [MFG (Oriental Yeast Co., Ltd. Japan)] and autoclaved tap water were granted. All aspects of this work including housing, experimentation and disposal of animals were performed in general accordance with the “Guide for the Care and Use of Laboratory Animals: Eighth Edition” (National Academies Press, Washington, D.C., 2011). In addition, the animal care and use protocol was reviewed and approved by the IACUC at Pharmacology Discovery Services Taiwan, Ltd. Immediately after the sacrifice of hamsters, blood samples were collected via terminal cardiac puncture in tubes coated with EDTA-K2, mixed gently, then kept on ice and centrifuged at 2,500×g for 15 minutes at 4° C. After plasma separation, samples were stored at −80° C. in aliquots of 300 μL. To assay exemplary compounds in hamster plasma, a similar protocol as described for human plasma was performed diluting thawed plasma 1:2 in cFAP buffer. […] AMC release was detected measuring fluorescence at an excitation/emission wavelength of 380/460 nm using a Multifunction Microplate Reader. […]

T2 sequence (Q86TI2 whole entry): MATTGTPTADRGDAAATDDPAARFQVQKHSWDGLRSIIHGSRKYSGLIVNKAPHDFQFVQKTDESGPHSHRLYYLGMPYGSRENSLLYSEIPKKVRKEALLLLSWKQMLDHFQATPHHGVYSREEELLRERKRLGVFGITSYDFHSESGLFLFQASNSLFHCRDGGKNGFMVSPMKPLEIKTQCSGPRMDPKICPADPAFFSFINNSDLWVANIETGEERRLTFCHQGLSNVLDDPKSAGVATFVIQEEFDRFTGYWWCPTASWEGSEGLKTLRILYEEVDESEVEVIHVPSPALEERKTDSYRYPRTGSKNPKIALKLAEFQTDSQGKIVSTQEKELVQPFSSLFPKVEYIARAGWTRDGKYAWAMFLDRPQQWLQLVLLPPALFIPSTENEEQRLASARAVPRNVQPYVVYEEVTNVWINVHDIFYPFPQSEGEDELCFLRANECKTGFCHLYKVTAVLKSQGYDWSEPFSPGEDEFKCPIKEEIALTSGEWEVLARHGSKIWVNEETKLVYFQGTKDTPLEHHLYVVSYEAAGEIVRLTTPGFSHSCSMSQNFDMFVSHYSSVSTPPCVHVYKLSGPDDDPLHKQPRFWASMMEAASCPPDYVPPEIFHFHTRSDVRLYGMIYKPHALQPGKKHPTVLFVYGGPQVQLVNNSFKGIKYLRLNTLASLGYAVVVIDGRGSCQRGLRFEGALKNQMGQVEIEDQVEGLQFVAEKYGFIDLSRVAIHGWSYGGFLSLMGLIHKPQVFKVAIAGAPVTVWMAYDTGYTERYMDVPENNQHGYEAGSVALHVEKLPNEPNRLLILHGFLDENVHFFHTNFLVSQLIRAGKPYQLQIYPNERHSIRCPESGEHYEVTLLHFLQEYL
T1 sequence (P27487 whole entry): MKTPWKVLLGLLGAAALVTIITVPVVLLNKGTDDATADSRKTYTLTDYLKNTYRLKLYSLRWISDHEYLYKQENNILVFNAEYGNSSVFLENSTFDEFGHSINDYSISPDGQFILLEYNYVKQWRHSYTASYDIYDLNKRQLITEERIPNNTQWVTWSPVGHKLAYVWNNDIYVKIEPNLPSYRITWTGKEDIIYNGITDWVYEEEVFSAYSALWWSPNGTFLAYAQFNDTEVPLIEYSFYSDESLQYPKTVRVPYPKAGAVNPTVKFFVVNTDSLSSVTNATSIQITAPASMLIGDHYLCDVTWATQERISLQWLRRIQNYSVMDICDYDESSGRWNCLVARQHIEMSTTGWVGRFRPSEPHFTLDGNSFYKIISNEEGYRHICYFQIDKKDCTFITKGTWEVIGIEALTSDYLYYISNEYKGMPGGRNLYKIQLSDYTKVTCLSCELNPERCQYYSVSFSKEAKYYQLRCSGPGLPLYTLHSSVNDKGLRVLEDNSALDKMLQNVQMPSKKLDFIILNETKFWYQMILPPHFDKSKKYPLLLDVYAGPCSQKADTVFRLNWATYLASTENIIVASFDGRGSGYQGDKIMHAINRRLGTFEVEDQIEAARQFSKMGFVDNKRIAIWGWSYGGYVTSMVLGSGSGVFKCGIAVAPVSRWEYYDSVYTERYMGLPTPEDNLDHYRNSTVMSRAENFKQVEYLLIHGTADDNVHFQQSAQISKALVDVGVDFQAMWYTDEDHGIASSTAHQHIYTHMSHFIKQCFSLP

IC50 ([1]; Table 3A)	IC50 ([1]; Table 3B)	IC50 [2]	IC50 (DPPIV)	SMILES	IC50 [3]	IC50 (circulating FAPα)
> 10 µM	> 10 µM	> 10 µM	< 10 µM	N#C[C@@H]1CC(F)(F)CN1C(=O)CNC(=O)c1ccncc1NCc1ccc(F)cc1 [Compound 2, (S)—N-(2-(2-cyano-4,4-difluoropyrrolidin-1-yl)-2-oxoethyl)-3-((4-fluorobenzyl)amino)isonicotinamide]		
1 to 10 µM	1 to 10 µM	1 to 10 µM	< 1 µM	N#C[C@@H]1CC(F)(F)CN1C(=O)CNC(=O)c1ccncc1NC(=O)COc1ccc(Cl)c(F)c1 [Compound 5, (S)-3-(2-(4-chloro-3-fluorophenoxy)acetamido)-N-(2-(2-cyano-4,4-difluoropyrrolidin-1-yl)-2-oxoethyl)isonicotinamide]		
> 10 µM	> 10 µM	1 to 10 µM	< 10 µM	N#C[C@@H]1CC(F)(F)CN1C(=O)CNC(=O)c1ccncc1Cc1ccccc1F [Compound 7, (S)—N-(2-(2-cyano-4,4-difluoropyrrolidin-1-yl)-2-oxoethyl)-3-(2-fluorobenzyl)isonicotinamide]		
> 10 µM	> 10 µM	1 to 10 µM	< 10 µM	N#C[C@@H]1CC(F)(F)CN1C(=O)CNC(=O)c1ccncc1Cc1ccc(F)cc1 [Compound 8, (S)—N-(2-(2-cyano-4,4-difluoropyrrolidin-1-yl)-2-oxoethyl)-3-(4-fluorobenzyl)isonicotinamide]		

SMILES	IC50 ([1]; Table 3A)	IC50 ([1]; Table 3B)	IC50 [2]	IC50 (DPPIV)	IC50 [3]	IC50 (circulating FAPα)
COc1ccc(C(=O)Nc2cnccc2C(=O)NCC(=O)N2CC(F)(F)C[C@H]2C#N)cc1 [Compound 3, (S)—N-(2-(2-cyano-4,4-difluoropyrrolidin-1-yl)-2-oxoethyl)-3-(4-methoxybenzamido)isonicotinamide]	1 to 10 µM	1 to 10 µM	1 to 10 µM	1 to 10 µM	< 1 µM	< 1 µM
N#C[C@@H]1CC(F)(F)CN1C(=O)CNC(=O)c1ccncc1/C=C/c1ccc(Cl)cc1 [Compound 9, (S,E)-3-(4-chlorostyryl)-N-(2-(2-cyano-4,4-difluoropyrrolidin-1-yl)-2-oxoethyl)isonicotinamide]	> 10 µM	> 10 µM	< 1 µM	< 10 µM	< 1 µM	< 1 µM
